Experimental data as given in patent US20230085307A1, “PYRIDAZINONE COMPOUND AND HERBICIDE” (NISSAN CHEMICAL CORPORATION, priority 2019, published 2023).

Legend:
barnyard grass [1] = assay: Test Example 3: herbicidal effect by foliage application, Wagner pot (Table 18, symbol H); assay type: in vivo, barnyard grass (Echinochloa crus-galli); conditions: 320 g/ha
Outline: (§1)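 Plants were sown in alluvial soil held under 0.1–0.5 cm standing water and grown 14 days in a greenhouse at 25–30 °C. An emulsifiable formulation, water-diluted to the set dose, was then sprayed onto the foliage, and effects were scored three weeks later using previously defined criteria.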

chickweed [2] = assay: Test Example 4: herbicidal effect by soil treatment (Table 19, symbol P); assay type: in vivo, common chickweed (Stellaria media); conditions: AAH 320 g/ha
Outline: (§2)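 Applied as a water-diluted emulsion, the compound was sprayed onto soil covering newly sown seeds. Evaluation came three weeks after application, in a greenhouse held at 25° C. to 30° C.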

redroot pigweed [3] = assay: Test Example 5: herbicidal effect by foliage application, plastic box (Table 20, symbol N); assay type: in vivo, redroot pigweed (Amaranthus retroflexus); conditions: foliage application, AAH 320 g/ha, three weeks after application
Outline: (§3)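 Sow seeds spot-wise in sterilized diluvial soil; cover with ~1.5 cm soil. Grow 14 days in greenhouse, 25° C. to 30° C. Spray foliage with emulsion diluted to predetermined amount. Rate effect after 3 weeks.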

rice flat sedge = assay: Test Example 3: herbicidal effect by foliage application, Wagner pot (Table 18, symbol E); assay type: in vivo, rice flat sedge (Cyperus iria); conditions: 320 g/ha
Outline: as §1

windgrass [4] = assay: Test Example 5: herbicidal effect by foliage application, plastic box (Table 20, symbol L); assay type: in vivo, windgrass (Apera spica-venti); conditions: foliage application, AAH 320 g/ha, three weeks after application
Outline: as §3

lambsquarters [5] = assay: Test Example 5: herbicidal effect by foliage application, plastic box (Table 20, symbol O); assay type: in vivo, lambsquarters (Chenopodium album); conditions: foliage application, AAH 320 g/ha, three weeks after application
Outline: as §3

Italian ryegrass [6] = assay: Test Example 4: herbicidal effect by soil treatment (Table 19, symbol K); assay type: in vivo, Italian ryegrass (Lolium multiflorum); conditions: AAH 320 g/ha
Outline: as §2

velvetleaf [7] = assay: Test Example 4: herbicidal effect by soil treatment (Table 19, symbol M); assay type: in vivo, velvetleaf (Abutilon theophrasti); conditions: AAH 320 g/ha
Outline: as §2

southern crabgrass [8] = assay: Test Example 4: herbicidal effect by soil treatment (Table 19, symbol F); assay type: in vivo, southern crabgrass (Digitaria ciliaris); conditions: AAH 320 g/ha
Outline: as §2

false cleavers = assay: Test Example 4: herbicidal effect by soil treatment (Table 19, symbol Q); assay type: in vivo, false cleavers (Galium spurium); conditions: AAH 320 g/ha
Outline: as §2

blackgrass [9] = assay: Test Example 4: herbicidal effect by soil treatment (Table 19, symbol J); assay type: in vivo, blackgrass (Alopecurus myosuroides); conditions: AAH 320 g/ha
Outline: as §2

southern crabgrass [10] = assay: Test Example 5: herbicidal effect by foliage application, plastic box (Table 20, symbol F); assay type: in vivo, southern crabgrass (Digitaria ciliaris); conditions: foliage application, AAH 320 g/ha, three weeks after application
Outline: as §3

lambsquarters [11] = assay: Test Example 4: herbicidal effect by soil treatment (Table 19, symbol O); assay type: in vivo, lambsquarters (Chenopodium album); conditions: AAH 320 g/ha
Outline: as §2

windgrass [12] = assay: Test Example 4: herbicidal effect by soil treatment (Table 19, symbol L); assay type: in vivo, windgrass (Apera spica-venti); conditions: AAH 320 g/ha
Outline: as §2

wild oat [13] = assay: Test Example 4: herbicidal effect by soil treatment (Table 19, symbol I); assay type: in vivo, wild oat (Avena fatua); conditions: AAH 320 g/ha
Outline: as §2

blackgrass [14] = assay: Test Example 5: herbicidal effect by foliage application, plastic box (Table 20, symbol J); assay type: in vivo, blackgrass (Alopecurus myosuroides); conditions: foliage application, AAH 320 g/ha, three weeks after application
Outline: as §3

velvetleaf [15] = assay: Test Example 5: herbicidal effect by foliage application, plastic box (Table 20, symbol M); assay type: in vivo, velvetleaf (Abutilon theophrasti); conditions: foliage application, AAH 320 g/ha, three weeks after application
Outline: as §3

persian speedwell [16] = assay: Test Example 4: herbicidal effect by soil treatment (Table 19, symbol R); assay type: in vivo, Persian speedwell (Veronica persica); conditions: AAH 320 g/ha
Outline: as §2

wild oat [17] = assay: Test Example 5: herbicidal effect by foliage application, plastic box (Table 20, symbol I); assay type: in vivo, wild oat (Avena fatua); conditions: foliage application, AAH 320 g/ha, three weeks after application
Outline: as §3

green foxtail [18] = assay: Test Example 4: herbicidal effect by soil treatment (Table 19, symbol G); assay type: in vivo, green foxtail (Setaria viridis); conditions: AAH 320 g/ha
Outline: as §2

chickweed [19] = assay: Test Example 5: herbicidal effect by foliage application, plastic box (Table 20, symbol P); assay type: in vivo, common chickweed (Stellaria media); conditions: foliage application, AAH 320 g/ha, three weeks after application
Outline: as §3

Chinese sprangletop = assay: Test Example 3: herbicidal effect by foliage application, Wagner pot (Table 18, symbol D); assay type: in vivo, chinese sprangletop (Leptochloa chinensis); conditions: 320 g/ha
Outline: as §1

redroot pigweed [20] = assay: Test Example 4: herbicidal effect by soil treatment (Table 19, symbol N); assay type: in vivo, redroot pigweed (Amaranthus retroflexus); conditions: AAH 320 g/ha
Outline: as §2

barnyard grass [21] = assay: Test Example 5: herbicidal effect by foliage application, plastic box (Table 20, symbol H); assay type: in vivo, barnyard grass (Echinochloa crus-galli); conditions: foliage application, AAH 320 g/ha, three weeks after application
Outline: as §3

green foxtail [22] = assay: Test Example 5: herbicidal effect by foliage application, plastic box (Table 20, symbol G); assay type: in vivo, green foxtail (Setaria viridis); conditions: foliage application, AAH 320 g/ha, three weeks after application
Outline: as §3

Italian ryegrass [23] = assay: Test Example 5: herbicidal effect by foliage application, plastic box (Table 20, symbol K); assay type: in vivo, Italian ryegrass (Lolium multiflorum); conditions: foliage application, AAH 320 g/ha, three weeks after application
Outline: as §3

persian speedwell [24] = assay: Test Example 5: herbicidal effect by foliage application, plastic box (Table 20, symbol R); assay type: in vivo, Persian speedwell (Veronica persica); conditions: foliage application, AAH 320 g/ha, three weeks after application
Outline: as §3

barnyard grass [25] = assay: Test Example 4: herbicidal effect by soil treatment (Table 19, symbol H); assay type: in vivo, barnyard grass (Echinochloa crus-galli); conditions: AAH 320 g/ha
Outline: as §2

| SMILES | herbicidal effect on H (barnyard grass), rating 0-5 (barnyard grass [1]) | P: chickweed, herbicidal effect rating (chickweed [2]) | N: redroot pigweed, herbicidal effect (redroot pigweed [3]) | herbicidal effect on E (rice flat sedge), rating 0-5 (rice flat sedge) | L: windgrass, herbicidal effect (windgrass [4]) | O: lambsquarters, herbicidal effect (lambsquarters [5]) | K: Italian ryegrass, herbicidal effect rating (Italian ryegrass [6]) | M: velvetleaf, herbicidal effect rating (velvetleaf [7]) | F: southern crabgrass, herbicidal effect rating (southern crabgrass [8]) | Q: false cleavers, herbicidal effect rating (false cleavers) | J: blackgrass, herbicidal effect rating (blackgrass [9]) | F: southern crabgrass, herbicidal effect (southern crabgrass [10]) | O: lambsquarters, herbicidal effect rating (lambsquarters [11]) | L: windgrass, herbicidal effect rating (windgrass [12]) | I: wild oat, herbicidal effect rating (wild oat [13]) | J: blackgrass, herbicidal effect (blackgrass [14]) | M: velvetleaf, herbicidal effect (velvetleaf [15]) | R: persian speedwell, herbicidal effect rating (persian speedwell [16]) | I: wild oat, herbicidal effect (wild oat [17]) | G: green foxtail, herbicidal effect rating (green foxtail [18]) | further results |
| --- | --- | --- | --- | --- | --- | --- | --- | --- | --- | --- | --- | --- | --- | --- | --- | --- | --- | --- | --- | --- | --- |
| CCCC(=O)Oc1c(OC)nn(C)c(=O)c1-c1c(-c2ccc([N+](=O)[O-])cc2)sc2ccccc12 [1-169] | 1 (Herbicidal rate of 5% or more and less than 20%) | 1 (Herbicidal rate of 5% or more and less than 20%) | 4 (Herbicidal rate of 70% or more and less than 90%) | 2 (Herbicidal rate of 20% or more and less than 40%) | 0 (Herbicidal rate of 5% or less (almost no effect)) | 4 (Herbicidal rate of 70% or more and less than 90%) | 0 (Herbicidal rate of 5% or less (almost no effect)) | 0 (Herbicidal rate of 5% or less (almost no effect)) | 0 (Herbicidal rate of 5% or less (almost no effect)) | 0 (Herbicidal rate of 5% or less (almost no effect)) | 0 (Herbicidal rate of 5% or less (almost no effect)) | 0 (Herbicidal rate of 5% or less (almost no effect)) | 0 (Herbicidal rate of 5% or less (almost no effect)) | 0 (Herbicidal rate of 5% or less (almost no effect)) | 0 (Herbicidal rate of 5% or less (almost no effect)) | 0 (Herbicidal rate of 5% or less (almost no effect)) | 0 (Herbicidal rate of 5% or less (almost no effect)) | 3 (Herbicidal rate of 40% or more and less than 70%) | 0 (Herbicidal rate of 5% or less (almost no effect)) | 0 (Herbicidal rate of 5% or less (almost no effect)) | P: chickweed, herbicidal effect (chickweed [19]): 4 (Herbicidal rate of 70% or more and less than 90%); herbicidal effect on D (Chinese sprangletop), rating 0-5 (Chinese sprangletop): 0 (Herbicidal rate of 5% or less (almost no effect)); N: redroot pigweed, herbicidal effect rating (redroot pigweed [20]): 0 (Herbicidal rate of 5% or less (almost no effect)); H: barnyard grass, herbicidal effect (barnyard grass [21]): 0 (Herbicidal rate of 5% or less (almost no effect)); G: green foxtail, herbicidal effect (green foxtail [22]): 0 (Herbicidal rate of 5% or less (almost no effect)); K: Italian ryegrass, herbicidal effect (Italian ryegrass [23]): 0 (Herbicidal rate of 5% or less (almost no effect)); R: persian speedwell, herbicidal effect (persian speedwell [24]): 4 (Herbicidal rate of 70% or more and less than 90%); H: barnyard grass, herbicidal effect rating (barnyard grass [25]): 0 (Herbicidal rate of 5% or less (almost no effect)) |
| CCCC(=O)Oc1c(OC)nn(C)c(=O)c1-c1c(-c2ccc(F)c(C)c2)sc2ccccc12 [1-175] | 0 (Herbicidal rate of 5% or less (almost no effect)) | 0 (Herbicidal rate of 5% or less (almost no effect)) | 0 (Herbicidal rate of 5% or less (almost no effect)) | 3 (Herbicidal rate of 40% or more and less than 70%) | 0 (Herbicidal rate of 5% or less (almost no effect)) | 0 (Herbicidal rate of 5% or less (almost no effect)) | 2 (Herbicidal rate of 20% or more and less than 40%) | 3 (Herbicidal rate of 40% or more and less than 70%) | 0 (Herbicidal rate of 5% or less (almost no effect)) | 0 (Herbicidal rate of 5% or less (almost no effect)) | 0 (Herbicidal rate of 5% or less (almost no effect)) | 0 (Herbicidal rate of 5% or less (almost no effect)) | 4 (Herbicidal rate of 70% or more and less than 90%) | 1 (Herbicidal rate of 5% or more and less than 20%) | 0 (Herbicidal rate of 5% or less (almost no effect)) | 0 (Herbicidal rate of 5% or less (almost no effect)) | 3 (Herbicidal rate of 40% or more and less than 70%) | 0 (Herbicidal rate of 5% or less (almost no effect)) | 0 (Herbicidal rate of 5% or less (almost no effect)) | 1 (Herbicidal rate of 5% or more and less than 20%) | P: chickweed, herbicidal effect (chickweed [19]): 5 (Herbicidal rate of 90% or more (almost completely withered)); herbicidal effect on D (Chinese sprangletop), rating 0-5 (Chinese sprangletop): 0 (Herbicidal rate of 5% or less (almost no effect)); N: redroot pigweed, herbicidal effect rating (redroot pigweed [20]): 4 (Herbicidal rate of 70% or more and less than 90%); H: barnyard grass, herbicidal effect (barnyard grass [21]): 0 (Herbicidal rate of 5% or less (almost no effect)); G: green foxtail, herbicidal effect (green foxtail [22]): 0 (Herbicidal rate of 5% or less (almost no effect)); K: Italian ryegrass, herbicidal effect (Italian ryegrass [23]): 0 (Herbicidal rate of 5% or less (almost no effect)); R: persian speedwell, herbicidal effect (persian speedwell [24]): 4 (Herbicidal rate of 70% or more and less than 90%); H: barnyard grass, herbicidal effect rating (barnyard grass [25]): 0 (Herbicidal rate of 5% or less (almost no effect)) |
